From PMC9147192, “Small Molecule Arranged Thermal Proximity Coaggregation (smarTPCA)—A Novel Approach to Characterize Protein–Protein Interactions in Living Cells by Similar Isothermal Dose–Responses” (International Journal of Molecular Sciences, 2022)

Columns and labels:
FECH = molecular target: T1, FECH (Homo sapiens, UniProt P22830); experiment: TPP-CCR in living HL-60 cells; assay type: cell-based
T1 construct: endogenous in cells; host or cells: HL-60 (ATCC CCL-240)
T1 sequence (P22830 55-423): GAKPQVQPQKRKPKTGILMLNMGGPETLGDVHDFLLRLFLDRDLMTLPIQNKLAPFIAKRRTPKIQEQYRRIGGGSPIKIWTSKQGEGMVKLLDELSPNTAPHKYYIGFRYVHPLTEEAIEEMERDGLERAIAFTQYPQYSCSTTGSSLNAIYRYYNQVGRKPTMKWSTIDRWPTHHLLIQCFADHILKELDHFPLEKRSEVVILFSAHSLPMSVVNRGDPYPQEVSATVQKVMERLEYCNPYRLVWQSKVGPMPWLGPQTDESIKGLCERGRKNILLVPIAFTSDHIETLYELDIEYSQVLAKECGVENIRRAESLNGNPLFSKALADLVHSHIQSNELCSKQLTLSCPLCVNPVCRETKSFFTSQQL

PDCD4 = molecular target: T2, PDCD4 (Homo sapiens, UniProt Q53EL6); experiment: TPP-CCR in living HL-60 cells; assay type: cell-based
T2 construct: endogenous in cells; host or cells: HL-60 (ATCC CCL-240)
T2 sequence (Q53EL6 1-469): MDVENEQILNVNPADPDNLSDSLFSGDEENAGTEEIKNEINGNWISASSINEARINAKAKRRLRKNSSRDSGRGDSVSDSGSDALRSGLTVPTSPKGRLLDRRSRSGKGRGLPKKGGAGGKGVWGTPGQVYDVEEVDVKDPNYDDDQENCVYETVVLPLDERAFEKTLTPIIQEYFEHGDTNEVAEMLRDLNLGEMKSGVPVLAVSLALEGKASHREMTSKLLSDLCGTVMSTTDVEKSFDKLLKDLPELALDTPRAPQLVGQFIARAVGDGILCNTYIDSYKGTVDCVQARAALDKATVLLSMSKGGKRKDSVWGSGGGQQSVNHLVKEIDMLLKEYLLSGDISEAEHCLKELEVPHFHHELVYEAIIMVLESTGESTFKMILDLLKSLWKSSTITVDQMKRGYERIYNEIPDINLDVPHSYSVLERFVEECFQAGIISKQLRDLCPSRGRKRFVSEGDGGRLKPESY

[1] = living HL-60 cells, […] °C, TMT-MS

Cc1cnc(Nc2ccc(F)cc2Cl)nc1-c1c[nH]c(C(=O)N[C@H](CO)c2cccc(Cl)c2)c1 [ERK 11e]
Hill slope (FECH; TPP-CCR, living cells, FECH): 0.38
EC50 (FECH; [1]): 0.631 µM
Hill slope (FECH) (FECH; [1]): 0.38
Hill slope (PDCD4; TPP-CCR, living cells, PDCD4): 0.69
Hill slope (PDCD4) (PDCD4; [1]): 0.69
EC50 (PDCD4; living HL-60 cells, […] °C, TMT-MS, read-out: pEC50 (PDCD4) (converted)): 1.05 µM
